Read-outs that look alike come from different tables or passages of the source.
Key:
anesthetized dogs = assay: Action of increasing coronary blood flow in anesthetized dogs (administration into coronary artery); assay type: in vivo, dog; details: injected into coronary artery, 30 ug/day, anesthetized Beagle dogs
Description: Action of increasing coronary blood flow in anesthetized dogs (Administration into coronary artery) Method: Beagle dogs (10 to 12 kg body weight) were anesthetized with pentobarbital and subjected to thoractomy under artificial respiration. A by-pass fitted with an electromagnetic flowmeter (Nippon Koden) was prepared between the left coronary artery and left carotid artery,and the volume of coronary blood flow was measured. […]
Maximal change rate against the value measured before the administration (% of basal flow) and the duration period [shown in terms of the time (T1/2) in which the activity is reduced to half] are shown in Table 67. As a result, it is apparent that the compounds of this invention show action of increasing coronary blood flow.

specimen of rat aorta [1] = assay: Vasorelaxation activity in a specimen of rat aorta: contraction caused by KCl; details: read-out: constriction inhibitory ratio
Description: (§1) Male Wister rats (10 to 13 week old were employed for the experiment. After dehematization, the aorta was excised and a ring specimen (5 mm length) was prepared. The specimen was suspended in a bath filled with oxygenated (95% O2 -5%CO2) Krebs solution (36° C.). The ring specimen was fixed at one end and the other end was connected to a transducer (Nippon Koden) for recording tension to determine the tension. After a stabilization period of one hour, TEA (30-45 mM) and BaCl2 (0.3 mM) were added to the bath to cause vasoconstriction. After the constriction had reached a steady state (after about 15 minutes), a test compound was added to the bath and its relaxation activity was measured.
Vasorelaxation activity in a specimen of rat aorta Effects on contraction caused by potassium chloride (KCl)
The same experiment was conducted as in Experiment 1, excepting the use of KCl ([…]) instead of TEA and BaCl2

[2] = test system: Spontaneously hypertensive rats; assay: Hypotensive activity in rats (Tail Cuff Method), oral; assay type: in vivo; details: Rattus norvegicus, SHR
Description: Hypotensive activity in rats (Tail Cuff Method)
Spontaneously hypertensive rats (SHR, male, 20 to 23 week old) were warmed up to 36° C. The blood pressure at the tail aorta was measured by the tail cuff method. The blood pressure was measured three times, i.e. before oral administration of the test compound, two hours after the administration and five hours after the administration. The test compound was orally administered in the state of a suspension in gum arabic.
Maximal, hypotensive effect against the blood pressure before the administration is shown as % pre. in Table 66. As a result, it is apparent that the compounds of this invention show hypotensive activity.

specimen of rat aorta [3] = assay: Vasorelaxation activity in a specimen of rat aorta: contraction caused by TEA and BaCl2; details: TEA (30-45 mM) and BaCl2 (0.3 mM) contraction, read-out: constriction inhibitory ratio
Description: Vasorelaxation activity in a specimen of rat aorta Effects on contraction caused by tetraethylammonium chloride (TEA) and barium chloride (BaCl2)
as §1

[4] = after 2 hours, read-out: Maximal hypotensive effect against blood pressure before administration (% pre.), after 2 hours
[5] = after 5 hours, read-out: Maximal hypotensive effect against blood pressure before administration (% pre.), after 5 hours

SMILES	duration (T1/2): time in which the activity is reduced to half (anesthetized dogs) [min]	inhibition at 1 µM (specimen of rat aorta [1]) [%]	inhibition at 3 µM (specimen of rat aorta [1]) [%]	inhibition in vivo at 10 mg/kg [2, 4] [%]	inhibition in vivo at 10 mg/kg [2, 5] [%]	inhibition at 1 µM (specimen of rat aorta [3]) [%]	inhibition at 3 µM (specimen of rat aorta [3]) [%]	inhibition in vivo at 3 mg/kg [2, 4] [%]	inhibition in vivo at 3 mg/kg [2, 5] [%]	inhibition at 10 µM (specimen of rat aorta [1]; 10 μM) [%]	inhibition at 10 µM (specimen of rat aorta [3]; 10 μM) [%]	inhibition in vivo at 30 mg/kg [2, 4] [%]	inhibition in vivo at 30 mg/kg [2, 5] [%]
CC(C)(C)O/N=C(/c1cc(F)c(Cl)cc1O)c1ncccc1O [Compound 40, (Z)-2-(4-chloro-5-fluoro-2-hydroxybenzoyl)-3-hydroxypyridine O-t-butyloxime]	2.8	0	0	30	11	85	72						
CC(C)(C)O/N=C(/c1cc(Br)c(Cl)cc1O)c1cccc[n+]1[O-] [Compound 101, (Z)-2-(5-bromo-4-chloro-2-hydroxybenzoyl)pyridine N-oxide O-t-butyloxime]	7.9	3	25			71	65	10	11				
CC(C)(C)O/N=C(/c1cc(Cl)c(F)cc1O)c1ncccc1O [Compound 36, (Z)-2-(5-chloro-4-fluoro-2-hydroxybenzoyl)-3-hydroxypyridine O-t-butyloxime]	4.8	0	4	42	30	81	80						
CC(C)(C)O/N=C(/c1cc(F)c(F)cc1O)c1ncccc1O [Compound 34, (Z)-2-(4,5-difluoro-2-hydroxybenzoyl)-3-hydroxypyridine O-t-butyloxime]	3.7	4	18	27	10	54	59						
CC(C)(C)O/N=C(/c1cc(Br)c(Cl)cc1O)c1ncccc1O [Compound 38, (Z)-2-(5-bromo-4-chloro-2-hydroxybenzoyl)-3-hydroxypyridine O-t-butyloxime]	4.7	0	1	29	13	92	100						
CC(C)(C)O/N=C(/c1cc(Br)ccc1O)c1c(O)ccc[n+]1[O-] [Compound 63, (Z)-2-(5-bromo-2-hydroxybenzoyl)-3-hydroxypyridine N-oxide O-t-butyloxime]	2.4	0	0	42	54	13	61			0	100		
CC(C)(C)C/N=C(/c1cc(Br)ccc1O)c1cccc[n+]1[O-] [Compound 105, (Z)-2-[(5-bromo-2-hydroxy)-α-neopentyliminobenzyl]pyridine N-oxide]	2.9	4	28			46	87					59	44
CC(C)(C)O/N=C(/c1cc(Cl)c(Cl)cc1O)c1ncccc1O [Compound 32, (Z)-2-(4,5-dichloro-2-hydroxybenzoyl)-3-hydroxypyridine O-t-butyloxime]	3.0	-2	11	19	18	87	100						
